According to patent publication US6632829B2, “Sulfonamides and derivatives thereof that modulate the activity of endothelin” (Texas Biotechnology Corp., priority 1996, dated 2003):

Assays:
human ETA receptors = target: T1, human ETA receptors (Homo sapiens, UniProt P25101); assay: Endothelin binding inhibition, Binding Test #1: competition with 125I-ET-1 for ETA receptors on TE 671 cell membranes
T1 construct: endogenous in cells; host or cells: TE 671 cells (ATCC HTB 139), membrane preparation
T1 sequence (P25101 21-427): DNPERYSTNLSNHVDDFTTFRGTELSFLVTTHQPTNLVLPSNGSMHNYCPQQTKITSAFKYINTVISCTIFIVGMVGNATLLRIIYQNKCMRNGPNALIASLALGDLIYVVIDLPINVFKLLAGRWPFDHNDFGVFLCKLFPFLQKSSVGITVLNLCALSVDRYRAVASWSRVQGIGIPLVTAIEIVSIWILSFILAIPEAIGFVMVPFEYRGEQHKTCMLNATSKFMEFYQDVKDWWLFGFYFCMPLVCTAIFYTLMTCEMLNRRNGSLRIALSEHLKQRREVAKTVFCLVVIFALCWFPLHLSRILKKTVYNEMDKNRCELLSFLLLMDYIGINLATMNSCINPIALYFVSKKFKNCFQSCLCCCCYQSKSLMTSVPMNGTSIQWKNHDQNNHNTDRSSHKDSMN

human ETB receptor = target: T2, human ETB receptor (Homo sapiens, UniProt P24530); assay: Endothelin binding inhibition, Binding Test #2: competition with 125I-ET-1 for ETB receptors on transfected COS7 cell membranes
T2 construct: expressed in transfected cells; host or cells: COS7 cells
T2 sequence (P24530 27-442): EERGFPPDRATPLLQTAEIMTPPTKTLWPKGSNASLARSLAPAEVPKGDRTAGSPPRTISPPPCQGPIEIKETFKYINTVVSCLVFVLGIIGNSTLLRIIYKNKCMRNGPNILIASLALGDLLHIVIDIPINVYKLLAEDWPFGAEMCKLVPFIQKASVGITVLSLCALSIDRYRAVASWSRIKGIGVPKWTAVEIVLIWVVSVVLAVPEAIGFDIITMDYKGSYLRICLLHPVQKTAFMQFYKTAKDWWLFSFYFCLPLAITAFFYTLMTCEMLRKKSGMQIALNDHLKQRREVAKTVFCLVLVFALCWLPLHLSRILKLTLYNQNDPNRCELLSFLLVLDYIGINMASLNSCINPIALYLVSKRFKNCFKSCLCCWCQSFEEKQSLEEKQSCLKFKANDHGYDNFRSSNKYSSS
Procedure, shortened: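 Membranes from COS7 cells transfected with human ETB receptor, prepared in HEPES pH 7.4 with aprotinin, MnCl2/DNase treatment at 37° C for 30 min. Test compounds compete with 125I-labeled ET-1 for receptor binding; membrane used at 1 μg/50 μL binding buffer.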

[1] = incubation at 24° C. (values marked †)
[2] = incubation at 4° C. (values without †)

Structure (SMILES) | IC50 (human ETA receptors; [1]) | IC50 (human ETB receptor; [1]) | inhibition at 100 µM (human ETB receptor; read-out: ETB % inhibition @ 100 μM, @ 100 μM, incubation at 24° C.) | IC50 (human ETA receptors; [2]) | IC50 (human ETB receptor; [2])
Cc1noc(NS(=O)(=O)c2ccsc2C(=O)Oc2ccc3c(c2)OCO3)c1Cl [N-(4-chloro-3-methyl-5-isoxazolyl)-2-[3,4-(methylenedioxy)phenoxycarbonyl]thiophene-3-sulfonamide] | 0.0065 µM | 7.4 µM | – | – | –
Cc1noc(NS(=O)(=O)c2c(-c3ccc4c(c3)OCO4)sc3ccccc23)c1Cl [N-(4-chloro-3-methyl-5-isoxazolyl)-2-[3,4-(methylenedioxy)phenyl]benzo[b]thiophene-3-sulfonamide] | 0.55 µM | 52.6 µM | – | – | –
Cc1noc(NS(=O)(=O)c2ccsc2C(=O)Cc2ccc3c(c2)OCO3)c1Cl [N-(4-chloro-3-methyl-5-isoxazolyl)-2-[3,4-(methylenedioxy)phenylacetyl]thiophene-3-sulfonamide] | 0.021 µM | 6.5 µM | – | – | –
COc1ccc(NC(=O)c2sccc2S(=O)(=O)Nc2onc(C)c2Cl)c(C)c1 [N-(4-chloro-3-methyl-5-isoxazolyl)-2-[4-methoxy-2-methylphenyl)aminocarbonyl]thiophene-3-sulfonamide] | 0.027 µM | 0.14 µM | – | – | –
Cc1cc(C)c(OC(=O)c2sccc2S(=O)(=O)Nc2onc(C)c2Cl)c(C)c1 [N-(4-chloro-3-methyl-5-isoxazolyl)-2-[(2,4,6-trimethylphenoxy)carbonyl]thiophene-3-sulfonamide] | 0.0776 µM | 30.2 µM | – | – | –
COc1ccc(NC(=O)c2sccc2S(=O)(=O)Nc2onc(C)c2Cl)c(OC)c1 [N-(4-chloro-3-methyl-5-isoxazolyl)-2-[(2,4-dimethoxyphenyl)aminocarbonyl]thiophene-3-sulfonamide] | 0.158 µM | 63.1 µM | – | – | –
Cc1ccc(OC(=O)c2sccc2S(=O)(=O)Nc2onc(C)c2Cl)c(C)c1 [N-(4-chloro-3-methyl-5-isoxazolyl)-2-[(2,4-dimethylphenoxy)carbonyl]thiophene-3-sulfonamide] | 0.648 µM | 68.5 µM | – | – | –
Cc1noc(NS(=O)(=O)c2c(Cc3ccc4c(c3)OCO4)sc3ccccc23)c1Cl [N-(4-chloro-3-methyl-5-isoxazolyl)-2-[(3,4-methylenedioxy)benzyl]benzo[b]thiophene-3-sulfonamide] | 0.011 ± 0.005 µM | 0.936 ± 0.095 µM | – | – | –
Cc1noc(NS(=O)(=O)c2ccsc2C(=O)Oc2cccc(N(C)C)c2)c1Cl [N-(4-chloro-3-methyl-5-isoxazolyl)-2-[(3-dimethylamino)phenoxycarbonyl]thiophene-3-sulfonamide] | 1.4 µM | 60 µM | – | – | –
Cc1ccc(NC(=O)c2sccc2S(=O)(=O)Nc2onc(C)c2Cl)nc1 [N-(4-chloro-3-methyl-5-isoxazolyl)-2-[(3-methyl-6-pyridyl)aminocarbonyl]thiophene-3-sulfonamide] | 0.023 µM | 43.7 µM | – | – | –
COC(=O)c1cc(C)c(NC(=O)c2sccc2S(=O)(=O)Nc2onc(C)c2Cl)c(C)c1 [N-(4-chloro-3-methyl-5-isoxazolyl)-2-[(4-methoxycarbonyl-2,6-dimethyl)phenylaminocarbonyl]thiophene-3-sulfonamide] | 0.000266 µM | 9.78 µM | – | – | –
COc1ccc(OC(=O)c2sccc2S(=O)(=O)Nc2onc(C)c2Cl)cc1 [N-(4-chloro-3-methyl-5-isoxazolyl)-2-[(4-methoxyphenoxy)carbonyl]thiophene-3-sulfonamide] | 0.023 µM | 15 µM | – | – | –
COc1ccc(CC(=O)c2sccc2S(=O)(=O)Nc2onc(C)c2Cl)cc1 [N-(4-chloro-3-methyl-5-isoxazolyl)-2-[(4-methoxyphenyl)acetyl]thiophene-3-sulfonamide] | 0.043 µM | 10.1 µM | – | – | –
Cc1ccc(OC(=O)c2sccc2S(=O)(=O)Nc2onc(C)c2Cl)cc1 [N-(4-chloro-3-methyl-5-isoxazolyl)-2-[(4-methylphenoxy)carbonyl]thiophene-3-sulfonamide] | 3.2 µM | – | 43% | – | –
Cc1ccc(NC(=O)c2sccc2S(=O)(=O)Nc2onc(C)c2Cl)cc1 [N-(4-chloro-3-methyl-5-isoxazolyl)-2-[(4-tolyl)aminocarbonyl]thiophene-3-sulfonamide] | 0.0105 µM | 14 µM | – | 0.00116 µM | 2.93 µM
Cc1cc(NC(=O)c2sccc2S(=O)(=O)Nc2onc(C)c2Cl)no1 [N-(4-chloro-3-methyl-5-isoxazolyl)-2-[(5-methyl-3-isoxazolyl)aminocarbonyl]thiophene-3-sulfonamide] | 0.056 µM | 92 µM | – | – | –

Structure (SMILES) | IC50 (human ETA receptors; [1]) | IC50 (human ETB receptor; [1]) | inhibition at 100 µM (human ETB receptor; read-out: ETB % inhibition @ 100 μM, @ 100 μM, incubation at 24° C.) | IC50 (human ETA receptors; [2]) | IC50 (human ETB receptor; [2])
COc1cc(C#N)c(NC(=O)c2sccc2S(=O)(=O)Nc2onc(C)c2Cl)cc1OC [N-(4-chloro-3-methyl-5-isoxazolyl)-2-[{2-cyano-4,5-dimethoxyphenyl)aminocarbonyl]thiophene-3-sulfonamide] | 0.0039 µM | 12.2 µM | – | – | –
Cc1noc(NS(=O)(=O)c2ccsc2CC2(c3ccc4c(c3)OCO4)OCCO2)c1Cl [N-(4-chloro-3-methyl-5-isoxazolyl)-2-[β,β-(ethylenedioxy)-3,4-(methylenedioxy)phenethyl]thiophene-3-sulfonamide] | 0.128 µM | 2.09 µM | – | – | –
Cc1noc(NS(=O)(=O)c2ccsc2CC(c2ccc3c(c2)OCO3)N(C)C)c1Cl (stereo not drawn) [N-(4-chloro-3-methyl-5-isoxazolyl)-2-[β-(dimethylamino)-3,4-(methylenedioxy)phenethy]thiophene-3-sulfonamide] | 20.9 µM | ~100 µM | – | – | –
Cc1noc(NS(=O)(=O)c2ccsc2CC(O)c2ccc3c(c2)OCO3)c1Cl (stereo not drawn) [N-(4-chloro-3-methyl-5-isoxazolyl)-2-[β-hydroxy(3,4-methylenedioxy)phenylethyl]thiophene-3-sulfonamide] | 0.053 µM | 16 µM | – | – | –
Cc1noc(NS(=O)(=O)c2ccsc2N)c1Cl [N-(4-chloro-3-methyl-5-isoxazolyl)-2-aminothiophene-3-sulfonamide] | 14 µM | 6.2 µM | – | – | –
CCc1oc2ccccc2c1S(=O)(=O)Nc1onc(C)c1Cl [N-(4-chloro-3-methyl-5-isoxazolyl)-2-ethylbenzo[b]furan-3-sulfonamide] | 0.15 µM | 22 µM | – | – | –
COC(=O)c1sccc1S(=O)(=O)Nc1onc(C)c1Cl [N-(4-chloro-3-methyl-5-isoxazolyl)-2-methoxycarbonylthiophene-3-sulfonamide] | – | – | – | 0.631 µM | 53.2 µM
Cc1noc(NS(=O)(=O)c2ccsc2C(=O)C(C#N)c2ccc3c(c2)OCO3)c1Cl (stereo not shown) [N-(4-chloro-3-methyl-5-isoxazolyl)-2-{1-cyano-1-[(3,4-methylenedioxy)phenyl]acetyl}thiophene-3-sulfonamide] | 2.1 µM | 27 µM | – | – | –
Cc1noc(NS(=O)(=O)c2ccsc2C(=O)Nc2cc3c(cc2CC(=O)N(C)C)OCO3)c1Cl [N-(4-chloro-3-methyl-5-isoxazolyl)-2-{2-[(dimethylamino)carbonylmethyl]-4,5-(methylenedioxy)phenylaminocarbonyl}thiophene-3-sulfonamide] | 0.009 µM | 13.8 µM | – | – | –
Cc1noc(NS(=O)(=O)c2ccsc2C(=O)N2CCN(Cc3ccc4c(c3)OCO4)CC2)c1Cl [N-(4-chloro-3-methyl-5-isoxazolyl)-2-{[4-(3,4-methylenedioxybenzyl)piperazin-1-yl]carbonyl}thiophene-3-sulfonamide] | 20 µM | > 100 µM | – | – | –
Cc1noc(NS(=O)(=O)c2ccsc2C(=O)C(O)c2ccc3c(c2)OCO3)c1Cl (stereo not drawn) [N-(4-chloro-3-methyl-5-isoxazolyl)-2-{α-hydroxy-[3,4-(methylenedioxy)phenyl]acetyl}thiophene-3-sulfonamide] | 2.5 µM | 30 µM | – | – | –
Cc1noc(NS(=O)(=O)c2ccc(C(=O)Nc3ccccc3)s2)c1Cl [N-(4-chloro-3-methyl-5-isoxazolyl)-5-(phenylaminocarbonyl)thiophene-2-sulfonamide] | 28.1 µM | 60.6 µM | – | – | –
COc1ccc2c(S(=O)(=O)Nc3onc(C)c3Cl)c(Cc3ccc4c(c3)OCO4)sc2c1 [N-(4-chloro-3-methyl-5-isoxazolyl)-6-methoxy-2-[3,4-(methylenedioxy)benzyl]benzo[b]thiophene-3-sulfonamide] | ~2 µM | 2.39 µM | – | – | –
Cc1ccc(CC(=O)c2sccc2S(=O)(=O)Nc2onc(C)c2Cl)c(C)c1 [N-(4-chloro-3-methyl-5-isoxazolyl)-(2,4-dimethylphenylacetyl)thiophene-3-sulfonamide] | 0.0004 µM | 4.8 µM | – | – | –
CC(=O)OCc1c(C)cc(C)c(NC(=O)c2sccc2S(=O)(=O)Nc2noc(C)c2Cl)c1C [N-(4-chloro-5-methyl-3-isoxazolyl)-2-(3-acetoxymethyl-2,4,6-trimethylphenylaminocarbonyl)thiophene-3-sulfonamide] | 0.00051 µM | 19.7 µM | – | – | –
